Experiment [1] deals with Human diploid fibroblast BJ. Description: In vitro cytotoxic activity (metabolisation of MTT). The class given is cell-based. The settings on record: 72 hours, BJ passage 18-22. The method, then: In vitro Cytotoxic Activity (metabolisation of Mtt). MTT ([…]) assay is a standard colorimetric assay for evaluation of cytotoxicity. Mitochondrial dehydrogenase activity converts yellow MTT into violet formazan which is measured by means of spectrometry.
Human diploid fibroblast BJ (passage 18-22) were seeded into 96-well plate (5.000 cells per well). After 6 hours cultivation medium (DMEM with 5 g/l glucose, 2 mM glutamine, 100 U/ml penicillin, 100 mmg/ml streptomycin, 10% fetal calf serum and sodium bicarbonate) was replaced with the cultivation medium containing test compounds in concentration range of 0-200 μM. Highest concentration was adjusted if the solubility of the compound was limiting. Every concentration was tested in pentaplicate. MTT was added to the cells after 72 hours incubation (final concentration 0.5 mg/ml) and incubation continued for another 3 hours. MTT was solubilised by DMSO and absorbance at 570 nm was measured. Growth inhibition (GI) was estimated using the following equitation: GI=(mean A drug exposed wells−mean Ablank/mean Acontrol wells−mean Ablank)×100%. The GI20 value, the drug concentration causing 20% decrease in mitochondrial dehydrogenase activity, was calculated from the obtained dose response curves.

The test system of the next experiment is melanoma cell line G-361. Nature of the experiment: In vitro cytotoxic activity (metabolisation of Calcein AM). It is filed as cell-based, human. As to conditions: G-361 cells, 72 hours incubation, called GI50, read-out: Cell line tested/IC50 (μmol/L) G-361. The text has this:
(§1) In vitro Cytotoxic Activity (Metabolisation of Calcein AM). Because toxic compounds negatively influence metabolic processes of cells, many standard cytotoxicity assays are based on measurement of metabolisation rate of various artificial substrates. Resulting product is then quantified, for example, by means of spectrometry. The assays can be easily modified for use in 96-well plates. For evaluation of cytotoxicity of the 6,8-disubstituted purines of this invention, a microtiter assay based on quantification of metabolisation of Calcein AM was used. The assay is widely used in drug screening programs and in chemosensitivity testing. In live cells, Calcein AM is enzymatically hydrolysed and accumulation of resulting calcein is manifested by green fluorescence.
(§2) The following human cell lines were used for routine screening of the compounds: normal diploid fibroblasts BJ, T-lymphoblastic leukemia cell line CEM, promyelocytic leukemia cell line HL-60, erytroid leukemia cell line K-562, breast carcinoma cell line MCF-7, osteosarcoma cell line HOS and melanoma cell line G-361. The cells were maintained in Nunc/Corning 80 cm^2 plastic tissue culture flasks and cultured in cell culture medium (DMEM with 5 g/l glucose, 2 mM glutamine, […] penicillin, 100 mmg/ml streptomycin, 10% fetal calf serum and sodium bicarbonate).
(§3) The cell suspensions were prepared and diluted according to the particular cell type and the expected target cell density (2.500-30.000 cells per well based on cell growth characteristics) and pipetted (80 μl) into 96-well plates. Inoculates were allowed a pre-incubation period of 24 hours at 37° C. and 5% CO2 for stabilization. Tested compound was added in total volume of […] of water at time zero. Usually, test compound was evaluated at six 3-fold dilutions. In routine testing, the highest concentration tested was 100 μM, but it could have been adjusted because of limited solubility of a compound. All drug concentrations were tested in triplicates.
(§4) Incubations of cells with the test compounds lasted for 72 hours at 37° C., in 5% CO2 atmosphere and 100% humidity. At the end of incubation period Calcein AM in PBS was added into final concentration of 1 μg/ml. After another 1 hour of incubation fluorescence (FD) was measured with the Labsystem FIA Reader Fluoroscan Ascent (UK). Growth inhibition (GI) was estimated using the following equitation: GI=(mean FDdrug exposed wells−mean FDblank)/(mean FDcontrol wells−mean FDblank)×100%. The GI50 value, the drug concentration causing 50% reduction of Calcein AM conversion, was calculated from the obtained dose response curves.

Experiment [2] relates to normal diploid fibroblasts BJ. The description is as above. It is filed as cell-based, human. As to conditions: BJ cells, 72 hours incubation, called GI50, read-out: Cell line tested/IC50 (μmol/L) BJ.
Text: as §1, §2, §3, §4

Experiment [3] has as its system T-lymphoblastic leukemia cell line CEM. The description is as above. It is filed as cell-based, human. The settings on record: CEM cells, 72 hours incubation, called GI50, read-out: Cell line tested/IC50 (μmol/L) CEM.
Text: as §1, §2, §3, §4

The subject of experiment [4] is erytroid leukemia cell line K-562. The experiment is described as above. It is filed as cell-based, human. The settings on record: 72 hours incubation, called GI50, read-out: Cell line tested/IC50 (μmol/L) K-562.
Text: as §1, §2, §3, §4

The subject of experiment [5] is osteosarcoma cell line HOS. Described as above. As to conditions: HOS cells, 72 hours incubation, called GI50, read-out: Cell line tested/IC50 (μmol/L) HOS. It is filed as cell-based, human.
Text: as §1, §2, §3, §4

For experiment [6], the system named is breast carcinoma cell line MCF-7. Described as above. As to conditions: MCF7 cells, 72 hours incubation, called GI50, read-out: Cell line tested/IC50 (μmol/L) MCF7. The class given is cell-based, human.
Text: as §1, §2, §3, §4

Setting [7] is: Homo sapiens, K562, K-562 cells.

SMILES strings stand for the structures. pIC50: −log10 of the molar value. Where two headings read alike, the source gives them in different places.

Regarding `Oc1cccc(CNc2ncnc3nc(Cl)[nH]c23)c1O` [Compound 46], the GI20 in experiment [1] is more than 200 µmol/L. In addition, the pIC50 in the experiment on melanoma cell line G-361 is less than 4.00; in experiment [2] it was less than 4.00; in experiment [3], less than 4.00; in experiment [4] (K-562 cells), less than 4.30; in experiment [5], less than 4.00; in experiment [6], less than 4.00.

On to `Oc1cc(O)cc(CNc2ncnc3nc(Cl)[nH]c23)c1` [Compound 47], for which the GI20 in experiment [1] is more than 200 µmol/L. Moreover, the pIC50 (with melanoma cell line G-361; in experiment [2]; in experiment [3]; in experiment [4] (K-562 cells); in experiment [5]; in experiment [6]) was less than 4.00 each time.

`CC(=CCNc1ncnc2nc(N(C)C)[nH]c12)CO` [Compound 63]: the GI20 in experiment [1] is more than 100 µmol/L. In addition, the pIC50 (in the experiment with melanoma cell line G-361; in experiment [2]; in experiment [3]; in experiment [4] (K-562 cells); in experiment [5]; in experiment [6]) was less than 4.30 throughout.

`CC(CO)CCNc1ncnc2nc(N(C)C)[nH]c12` (stereo not drawn) [Compound 64] came in with a GI20 in experiment [1] of more than 100 µmol/L. Moreover, the pIC50 (in the experiment on melanoma cell line G-361; in experiment [2]; in experiment [3]; in experiment [4] (K-562 cells); in experiment [5]; in experiment [6]) was less than 4.30 throughout.

In experiment [1], `Cc1cccc(Nc2ncnc3nc(N(C)C)[nH]c23)c1` [Compound 81] yielded a GI20 of more than 100 µmol/L. Besides, the pIC50 (with melanoma cell line G-361; in experiment [2]; in experiment [3]; in experiment [4] (K-562 cells); in experiment [5]; in experiment [6]) was less than 4.30 each time.

For the molecule `CC(=CCNc1ncnc2nc(N)[nH]c12)CO` [Compound 84], in experiment [1], the GI20 is more than 100 µmol/L. In addition, the pIC50 (in the experiment on melanoma cell line G-361; in experiment [2]; in experiment [3]; in experiment [4] (K-562 cells); in experiment [5]; in experiment [6]) was less than 4.30 each time.

Consider `C/C(=C\CNc1ncnc2nc(N)[nH]c12)CO` [Compound 85, 6-(E)-(4-hydroxy-3-methylbut-2-en-1-ylamino)-8-aminopurine], for which, in experiment [1], the GI20 was more than 100 µmol/L. Moreover, the pIC50 is less than 4.30 in the experiment with melanoma cell line G-361 (Homo sapiens); less than 4.30 in experiment [2] (Homo sapiens); less than 4.30 in experiment [3] (Homo sapiens, CCRF-CEM); less than 4.30 in experiment [4] (setting [7]); less than 4.30 in experiment [5] (Homo sapiens); less than 4.30 in experiment [6] (Homo sapiens).

On to `CC(CO)CCNc1ncnc2nc(N)[nH]c12` (stereo not drawn) [Compound 86, 6-(4-hydroxy-3-methylbutylamino)-8-aminopurine], for which, in experiment [1], the GI20 was more than 100 µmol/L. Also, the pIC50 in the experiment with melanoma cell line G-361 (Homo sapiens) is less than 4.30; in experiment [2] (Homo sapiens) it was less than 4.30; in experiment [3] (Homo sapiens, CCRF-CEM), less than 4.30; in experiment [4] (setting [7]), less than 4.30; in experiment [5] (Homo sapiens), less than 4.30; in experiment [6] (Homo sapiens), less than 4.30.

The molecule `Nc1nc2ncnc(NCc3ccccc3F)c2[nH]1` [Compound 88] gave a GI20 in experiment [1] of more than 100 µmol/L. In addition, the pIC50 (in the experiment with melanoma cell line G-361; in experiment [2]; in experiment [3]; in experiment [4] (K-562 cells); in experiment [5]; in experiment [6]) was less than 4.30 each time.

In experiment [1], `Nc1nc2ncnc(NCc3cccc(F)c3)c2[nH]1` [Compound 89] had a GI20 of more than 100 µmol/L. Also, the pIC50 (in the experiment on melanoma cell line G-361; in experiment [2]; in experiment [3]; in experiment [4] (K-562 cells); in experiment [5]; in experiment [6]) was less than 4.30 throughout.

Turning to `Nc1nc2ncnc(NCc3ccc(F)cc3)c2[nH]1` [Compound 90], in experiment [1], the GI20 is more than 100 µmol/L. Besides, the pIC50 (in the experiment with melanoma cell line G-361; in experiment [2]; in experiment [3]; in experiment [4] (K-562 cells); in experiment [5]; in experiment [6]) was less than 4.30 throughout.

In experiment [1], `Nc1nc2ncnc(NCc3cccc(Cl)c3)c2[nH]1` [Compound 91] showed a GI20 of more than 100 µmol/L. In addition, the pIC50 (with melanoma cell line G-361; in experiment [2]; in experiment [3]; in experiment [4] (K-562 cells); in experiment [5]; in experiment [6]) was less than 4.30 each time.

Take `Nc1nc2ncnc(NCc3ccc(Cl)cc3)c2[nH]1` [Compound 92]: the GI20 in experiment [1] was more than 100 µmol/L. The pIC50 (in the experiment on melanoma cell line G-361; in experiment [2]; in experiment [3]; in experiment [4] (K-562 cells); in experiment [5]; in experiment [6]) was less than 4.30 each time.

In experiment [1], `COc1ccccc1CNc1ncnc2nc(N)[nH]c12` [Compound 97] returned a GI20 of more than 100 µmol/L. Moreover, the pIC50 (with melanoma cell line G-361; in experiment [2]; in experiment [3]; in experiment [4] (K-562 cells); in experiment [5]; in experiment [6]) was less than 4.30 throughout.

The molecule `COc1cccc(CNc2ncnc3nc(N)[nH]c23)c1` [Compound 98] gave a GI20 in experiment [1] of more than 100 µmol/L. Also, the pIC50 (in the experiment on melanoma cell line G-361; in experiment [2]; in experiment [3]; in experiment [4] (K-562 cells); in experiment [5]; in experiment [6]) was less than 4.30 throughout.

The molecule `COc1ccc(CNc2ncnc3nc(N)[nH]c23)cc1` [Compound 99] registered a GI20 in experiment [1] of more than 100 µmol/L. The pIC50 (in the experiment on melanoma cell line G-361; in experiment [2]; in experiment [3]; in experiment [4] (K-562 cells); in experiment [5]; in experiment [6]) was less than 4.30 throughout.

In experiment [1], `Nc1nc2ncnc(NCc3cccc([N+](=O)[O-])c3)c2[nH]1` [Compound 100] yielded a GI20 of more than 100 µmol/L. Further, the pIC50 (in the experiment on melanoma cell line G-361; in experiment [2]; in experiment [3]; in experiment [4] (K-562 cells); in experiment [5]; in experiment [6]) was less than 4.30 in each case.

In the case of `Nc1nc2ncnc(NCc3ccc(Cl)c(Cl)c3)c2[nH]1` [Compound 101], the GI20 in experiment [1] is more than 100 µmol/L. The pIC50 (in the experiment with melanoma cell line G-361; in experiment [2]; in experiment [3]; in experiment [4] (K-562 cells); in experiment [5]; in experiment [6]) was less than 4.30 each time.

Values taken from US20130072506A1, “6,8-DISUBSTITUTED PURINE COMPOSITIONS” (priority 2011, published 2013).
